In PubChem BioAssay (NCI):
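Cultured in 96-well plates, cells were exposed to test compound for 48 hours across five concentrations. Here, GI50 denotes the concentration required for 50% inhibition of growth. TGI: total growth inhibition.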

Tests used:
Test in all cases: NCI-60 cell line screen, 48 h
A549 NSCLC = system: A549 NSCLC
HCT-116 colon = system: HCT-116 colon
IGROV1 ovarian = system: IGROV1 ovarian
M14 melanoma = system: M14 melanoma
NCI-H23 lung = system: NCI-H23 lung
SK-MEL-5 melanoma = system: SK-MEL-5 melanoma
SNB-75 CNS = system: SNB-75 CNS
UACC-62 melanoma = system: UACC-62 melanoma

SMILES	GI50 (A549 NSCLC) [µM]	TGI (A549 NSCLC) [µM]	GI50 (HCT-116 colon) [µM]	TGI (HCT-116 colon) [µM]	GI50 (IGROV1 ovarian) [µM]	TGI (IGROV1 ovarian) [µM]	GI50 (M14 melanoma) [µM]	TGI (M14 melanoma) [µM]	GI50 (NCI-H23 lung) [µM]	TGI (NCI-H23 lung) [µM]	GI50 (SK-MEL-5 melanoma) [µM]	TGI (SK-MEL-5 melanoma) [µM]	GI50 (SNB-75 CNS) [µM]	TGI (SNB-75 CNS) [µM]	GI50 (UACC-62 melanoma) [µM]	TGI (UACC-62 melanoma) [µM]
Nc1nc2c(nnn2C2CC(O)C(CO)O2)c(=O)[nH]1 (stereo not drawn)	20.3	> 100	5.89	> 100	9.49	> 100	4.47	> 92.1	4.61	> 100	14.7	> 89	7.59	> 100	3.48	36.2
Nc1nc(N(Cc2ccccc2)c2ccccc2)c2cn[nH]c2n1	5.47	> 100	3.19	> 100	4.16	> 100	5.22	> 100	6.06	> 100	3.04	> 100	2.47	> 100	4.32	> 100
NC(=O)COC(=O)c1c(Cl)nc2sccn12		> 100		> 31.6		> 100		> 100		> 100		> 100		> 100		> 100
CCOC1Oc2ccc(C)cc2C(=O)/C1=C\Nc1ccc(C(N)=O)cc1 (stereo not drawn)	33.3	> 100	13.4	26.2	18.9	72.5	17.2	33.4	17.4	38.2	13.8	30.2	44.5	> 100	13.6	30.8
CC[C@@]1(c2ccccc2)C2=C(CC(C)(C)CC2=O)Nc2[nH]ncc21	> 100	> 100	> 100	> 100	> 100	> 100	> 100	> 100	> 100	> 100	> 100	> 100	14.9	> 100	> 100	> 100
O=C(CCN(C(=O)O)S(=O)(=O)c1ccc(NC(=O)c2ccccc2)cc1)NC1CCCCC1		> 100		> 100		> 100		> 100		> 100		> 100		> 100		> 100
COc1cc2ncn(-c3cc(OCc4cccs4)c(C(N)=O)s3)c2cc1OC	1.87	> 17.5	1.68	> 25	2.75	> 25	1.82	> 17.3	1.24	> 25	1.94	> 25	5.72	> 22.4	1.33	> 16.8
CCN(CC)C(c1ccc(N(C)C)cc1)C(c1ccc(N(C)C)cc1)N(CC)CC (stereo not drawn)		> 73		> 73		> 73		> 73		> 73		> 73		> 73		> 73
COc1ccc2nc3c(C(=O)NCCN(C)C)cccc3nc2c1		> 100		28.1		93.5		19.5		24.7		15.7		25.5		21.2
O=C1Nc2ccccc2C1(c1ccc(O)cc1)c1ccc(O)cc1	27.9	> 96.7	14.5	31.6	10.2	39.3	20.1	49.3	1.23	37.8	14.7	29.3	12.7	38	19.2	43.8
